{"source": "patent US20260130918A1", "about": "“TRANSCRIPTION FACTOR PFAP2-O5 INHIBITOR FOR PLASMODIUM FALCIPARUM, PHARMACEUTICAL COMPOSITION, AND DRUG FOR TREATING MALARIA RESISTANT TO ARTEMISININ AND ANALOG THEREOF” (priority 2023, published 2026)", "key": {"[1]": {"system": "artemisinin-resistant Plasmodium falciparum strains", "assay": "Ring-stage survival assay against resistant Plasmodium falciparum strains", "assay_type": "cell-based", "conditions": "in combination with DHA, 6 hours exposure, then 66 hours culture", "procedure": "This experiment aimed to evaluate the killing effect of the triazoloquinoline derivative as a combination drug against drug-resistant Plasmodium falciparum strains using the gold-standard drug resistance assay. The detailed implementation procedures were as follows: • 1. Culture of Plasmodium falciparum when the parasitemia was greater than 4% and most parasites were at the ring (R) stage, the culture was synchronized with Sorbitol for 10 minutes and vortexed for 5 seconds; • 2. Synchronization with sorbitol was repeated 30-48 hours later (depending on the parasite stage); • 3. Smear test under microscope after approximately 30 hours of culture: if the proportion of the mature schizont (S) stage (10-12 merozoites) was greater than 0.5%, the operation proceeded to procedure 4; if the proportion of the mature S stage (10-12 merozoites) was less than 0.5%, procedure 2 was repeated; • 4. […] After the culture was mixed well, approximately 200 μL of the culture was pipetted and centrifuged for smear test under microscope (this could be done approximately 10 minutes in advance); the parasitemia was quickly calculated (must be greater than 0.5%); • 7. […] After 66 hours of the culture, smear test under microscope was performed to calculate the parasitemia, and the survival rate was calculated."}, "Plasmodium falciparum": {"system": "Plasmodium falciparum", "assay": "3-day SYBR Green I in vitro growth inhibition of Plasmodium falciparum", "assay_type": "cell-based", "conditions": "wild-type Plasmodium falciparum, 72 hours, read-out: IC50 of growth inhibition on in vitro culture of Plasmodium falciparum", "procedure": "100 μL of complete culture medium was added to a 96-well plate. 200 μL of a compound stock solution with a concentration of 200 μM was added to the first well. Gradient dilution (11 concentration gradients) was performed at a 1/2 ratio according to the doubling gradient dilution. Dihydroartemisinin (DHA) was used as a positive control, complete culture medium was used as a negative control, and red blood cells without Plasmodium falciparum or compounds were used as a background control.\n100 μL of wild-type Plasmodium falciparum culture (1% parasitemia, 4% hematocrit) was accurately added to each well, so that finally, the parasitemia in each well was 0.5%, and the hematocrit was 2%. The final concentration gradients of the compound were 100 μM, 50 μM, 25 μM, 12.5 μM, 6.25 μM, 3.125 μM, 1.5625 μM, 0.78125 μM, 0.390625 μM, 0.195313 μM, and 0.097656 μM. […] After the incubation was completed, a fluorescence intensity was recorded on a microplate reader with an excitation wavelength of 485 nm and an emission wavelength of 535 nm. The inhibition rate of the small molecule inhibitor on the growth of Plasmodium falciparum was calculated based on the fluorescence intensity.\n[formula] • where Fltreated, Flbackground, and Flcontrol represent the fluorescence intensity values of the candidate small molecule drug group, the red blood cell control group, and the untreated control group, respectively. […]"}, "HepG2 cells": {"system": "HepG2 cells", "assay": "3-day CCK-8 cytotoxicity assay, HepG2", "assay_type": "cell-based, human", "conditions": "HepG2, 72 hours", "procedure": "(§1) Mammalian 293T and HepG2 cells were cultured and passaged, trypsinized, and resuspended in DMEM. The cells were counted using a hemocytometer and diluted to 10^5 cells/mL. The cell suspension was evenly added to a 96-well plate, with 100 μL per well. After the cells were subjected to attachment culture in a 37° C. incubator (5% CO2) for 24 hours, the inhibitors of the corresponding concentrations were added. Gradient dilution (11 concentration gradients) was performed at a 1/2 ratio according to the doubling gradient dilution. Complete culture medium was used as a negative control, and DMEM was used as a background control. After the culture in a 37° C. incubator (5% CO2) for 72 hours, 10 µL of CCK8 reagent was added to each well. The plate was incubated in a 37° C. incubator (5% CO2) for 1 hour. The absorbance at a 450 nm wavelength was read by a microplate reader, and a survival rate was calculated based on the absorbance.\n(§2) [formula] • where Abtreated, Abbackground, and Abcontrol represent the absorbance values of the small molecule drug group, the DMEM control group, and the untreated control group, respectively. The inhibition rate of the drug was calculated based on the survival rate at different concentrations, and the growth inhibition curve was summarized as inhibition rate-drug concentration. The IC50 was calculated using SPSS 18.0 software."}, "[2]": {"system": "PfAP2-O5 target genes (invasion genes)", "assay": "RNA-seq analysis of invasion gene expression after inhibitor treatment", "assay_type": "cell-based, Plasmodium falciparum", "conditions": "wild-type strain treated with 1 M triazoloquinoline derivative for one life cycle", "procedure": "Wild-type and pfap2-o5 conditional knockdown Plasmodium falciparum strains were treated with the triazoloquinoline derivative represented by formula (I), respectively. After strict synchronization of the Plasmodium falciparum strains, […] triazoloquinoline derivative was added one life cycle in advance. After one life cycle, the ring (10-15 hours), trophozoite (28-32 hours), and schizont (40-44 hours) stage cultures of the wild-type and pfap2-o5 conditional knockdown Plasmodium falciparum strains treated with the triazoloquinoline derivative were collected. Total RNA was purified using the Direct-zol RNA kit, strand-specific RNA sequencing libraries were then prepared using KAPA mRNA beads, and the RNA was fragmented. The libraries were sequenced on the Illumina HiSeq X Ten system, and the differential gene expression between the two Plasmodium falciparum strains after inhibitor treatment was analyzed."}, "293T cells": {"system": "293T cells", "assay": "3-day CCK-8 cytotoxicity assay, 293T", "assay_type": "cell-based, human", "conditions": "72 hours", "procedure": "as §1, §2"}, "[3]": {"assay": "Liver microsomal metabolism, human", "assay_type": "in vitro ADME", "design": "half-life / CLint scaled: dose or concentration left out as unconfirmed", "procedure": "(§3) In the microsomal metabolism assay, the inhibitor was incubated with liver microsomes from different species; the reaction was terminated at different time points; the remaining amount of the inhibitor in the samples at each time point was determined using LC-MS/MS. The percentage of parent drug remaining was calculated, and the hepatic intrinsic clearance CLinit(liver) was finally obtained. Testosterone was used as a control in this study to verify the reliability of the experimental system. The detailed procedures were as follows:\n(§4) The incubation system consisted of 0.1 M Tris-HCl buffer (pH 7.4), 1 mM MgCl2, 1 mM NADPH (Nicotinamide Adenine Dinucleotide Phosphate), and 0.5 mg/mL microsomes, and the final reaction volume was 200 μL. […] inhibitor and testosterone were pre-incubated with liver microsomes from different species in a 37° C. water bath for 5 minutes. 100 μL of NADPH was added to initiate the reaction. 400 μL of stop solution was added to terminate the reaction at time points of 0 minutes, 5 minutes, 15 minutes, 30 minutes, 45 minutes, and 60 minutes. 40 μL of internal standard was added, and the mixture was vortexed for 5 minutes and centrifuged at […] and 4° C. for 5 minutes. 100 μL of the supernatant was taken and diluted with 100 μL of water for injection and analysis. The retention time of the compound and the internal standard, chromatogram acquisition, and chromatogram integration were processed by Analyst 1.6.3 software. The compound was subjected to linear regression with a weighting coefficient of 1/X^2 to calculate the concentration at each time point. The natural logarithm of the percentage remaining at each time point was linearly regressed against the incubation time to calculate the in vitro elimination rate constant k. The half-life (T1/2) and hepatic intrinsic clearance CLint(liver) of the test article were calculated according to the following formula.\n(§5) hepatic microsomal clearance CLint(mic)=0.693/half-life/mg microsomal protein per mL; hepatic intrinsic clearance CLint(liver)=hepatic microsomal clearance×mg microsomal protein/gram of liver×liver weight-to-body weight ratio. The liver weight-to-body weight ratios of mice, rats, and humans were […], respectively; the average value of mg microsomal protein/gram of liver in different species was 45."}, "[4]": {"assay": "Liver microsomal metabolism, rat", "assay_type": "in vitro ADME", "design": "half-life / CLint scaled: dose or concentration left out as unconfirmed", "procedure": "as §3, §4, §5"}, "[5]": {"assay": "Liver microsomal metabolism, mouse", "assay_type": "in vitro ADME", "design": "half-life / CLint scaled: dose or concentration left out as unconfirmed", "procedure": "as §3, §4, §5"}}, "note": "pIC50: −log10 of the molar value. Entries after “also recorded” stand apart in the source; their conditions may differ.", "data": [{"smiles": "Cc1cccc(-c2nnc3c4ccccc4nc(N4CCN(C(=O)Cc5ccccc5)CC4)n23)c1", "note": "[triazoloquinoline derivative]", "values": [{"measurement": "killing effect against artemisinin-resistant strains (ring-stage survival)", "setting": "[1]", "result": "more effectively kill"}, {"measurement": "pIC50", "setting": "Plasmodium falciparum", "result": 5.58}, {"measurement": "cytotoxicity to mammalian cells (HepG2)", "setting": "HepG2 cells", "result": "low cytotoxicity; also recorded: almost no toxicity"}, {"measurement": "decrease of expression levels of merozoite surface structural protein family genes (mRNA level)", "setting": "[2]", "result": "more than 1.5 fold"}, {"measurement": "cytotoxicity to mammalian cells (293T)", "setting": "293T cells", "result": "low cytotoxicity; also recorded: almost no toxicity"}, {"measurement": "clearance classification", "setting": "[3]; human liver microsomes", "result": "moderate-clearance compound"}, {"measurement": "k", "setting": "[3]; human liver microsomes, 0.5 mg/mL, NADPH", "result": 0.0053, "unit": "min⁻¹"}, {"measurement": "CLint scaled", "setting": "[3]; liver microsomes, pH 7.4, human, hepatic intrinsic clearance scaled from microsomes", "result": 8.54, "unit": "mL/min/kg"}, {"measurement": "half-life", "setting": "[3]; pH 7.4, human liver microsomes", "result": 131, "unit": "min"}, {"measurement": "CLint scaled", "setting": "[4]; liver microsomes, pH 7.4, rat, hepatic intrinsic clearance scaled from microsomes", "result": 59.4, "unit": "mL/min/kg"}, {"measurement": "half-life", "setting": "[4]; pH 7.4, rat liver microsomes", "result": 42, "unit": "min"}, {"measurement": "clearance classification", "setting": "[4]; rat liver microsomes", "result": "moderate-clearance compound"}, {"measurement": "k", "setting": "[4]; rat liver microsomes, 0.5 mg/mL, NADPH", "result": 0.0165, "unit": "min⁻¹"}, {"measurement": "CLint scaled", "setting": "[5]; liver microsomes, pH 7.4, mouse, hepatic intrinsic clearance scaled from microsomes", "result": 342, "unit": "mL/min/kg"}, {"measurement": "clearance classification", "setting": "[5]; mouse liver microsomes", "result": "high-clearance compound"}, {"measurement": "k", "setting": "[5]; mouse liver microsomes, 0.5 mg/mL, NADPH", "result": 0.0432, "unit": "min⁻¹"}, {"measurement": "half-life", "setting": "[5]; pH 7.4, mouse liver microsomes", "result": 16, "unit": "min"}]}]}
